Results on 18 compounds are retold here after PubChem BioAssay AID256 (DTP/NCI, 2004).

“And” between values parts separate entries of the source, which are not always exact repeats. Equal entries are not always repeated. Inconclusive results and toxic doses are left out.

The experiment relates to CD2F1 mice, L1210 leukemia ip, survival T/C. The experiment is described as follows: NCI In Vivo Anticancer Drug Screen. Data for tumor model L1210 Leukemia (intraperitoneal) in CD2F1 (CDF1) mice. The following applies: higher = longer survival. In outline: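 Vehicle-treated tumor-bearing mice served as controls (C) for compound-treated mice (T). Reported figure is T divided by C.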

[1] abbreviates: endpoint: mean survival time, dose: 100.0 mg/kg/injection, schedule: Q01DX009 (ip), vehicle: saline with Tween-80.
Setting [2] is: endpoint: mean survival time, dose: 100.0 mg/kg/injection, schedule: Q04DX003 (ip), vehicle: saline with Tween-80.
Setting [3] is: endpoint: mean survival time, dose: 200.0 mg/kg/injection, schedule: Q01DX009 (ip), vehicle: saline with Tween-80.
The mark [4] stands for this setting: endpoint: mean survival time, dose: 200.0 mg/kg/injection, schedule: Q04DX003 (ip), vehicle: saline with Tween-80.
Setting [5] is: endpoint: mean survival time, dose: 400.0 mg/kg/injection, schedule: Q01DX009 (ip), vehicle: saline with Tween-80.
Where [6] appears, read: endpoint: mean survival time, dose: 400.0 mg/kg/injection, schedule: Q04DX003 (ip), vehicle: saline with Tween-80.
Where [7] appears, read: endpoint: mean survival time, dose: 100.0 mg/kg/injection, schedule: Q01DX001 (ip), vehicle: saline with Tween-80.
[8] abbreviates: endpoint: mean survival time, dose: 200.0 mg/kg/injection, schedule: Q01DX001 (ip), vehicle: saline with Tween-80.
Setting [9] is: endpoint: mean survival time, dose: 200.0 mg/kg/injection, schedule: Q04DX002 (ip), vehicle: saline with Tween-80.
The mark [10] stands for this setting: endpoint: mean survival time, dose: 50.0 mg/kg/injection, schedule: Q01DX009 (ip), vehicle: saline with Tween-80.

Regarding `COc1ccc(C2(C)OCCCC2([NH-])C[NH-])cc1.[Cl][Pt+2][Cl]` (stereo unspecified), the T/C (endpoint: median survival time, dose: 10.0 mg/kg/injection, schedule: Q04DX003 (ip), vehicle: saline) is 105 % of control; the T/C (endpoint: median survival time, dose: 20.0 mg/kg/injection, schedule: Q04DX003 (ip), vehicle: saline) was 103 % of control; the T/C (endpoint: median survival time, dose: 40.0 mg/kg/injection, schedule: Q04DX003 (ip), vehicle: saline) was 105 % of control; the T/C (endpoint: median survival time, dose: 80.0 mg/kg/injection, schedule: Q04DX003 (ip), vehicle: saline with Tween-80) is 100 % of control; the T/C (endpoint: median survival time, dose: 80.0 mg/kg/injection, schedule: Q04DX003 (ip), vehicle: saline) was 95 % of control; the T/C (endpoint: median survival time, dose: 160.0 mg/kg/injection, schedule: Q04DX003 (ip), vehicle: saline with Tween-80) is 110 % of control. For the same compound, for the setting “endpoint: median survival time, dose: 320.0 mg/kg/injection, schedule: Q04DX003 (ip), vehicle: saline with Tween-80”, the T/C is 115 % of control.
As to `CC(C)COC(=O)CN(CC(=O)OCC(C)C)c1ccccc1`, the T/C by setting is: under setting [1], 96 % of control; under setting [2], 110 % of control; under setting [3], 98 % of control; under setting [4], 97 % of control; under setting [5], 103 % of control; under setting [6], 97 % of control.
Regarding `ClC1C2CCC(C2)C1(Cl)Cl` (stereo unspecified), the T/C (endpoint: mean survival time, dose: 0.3 mg/kg/injection, schedule: Q01DX001 (ip), vehicle: saline with Tween-80) was 100 % of control; the T/C (endpoint: mean survival time, dose: 0.6 mg/kg/injection, schedule: Q01DX001 (ip), vehicle: saline with Tween-80) was 103 % of control; the T/C (endpoint: mean survival time, dose: 1.2 mg/kg/injection, schedule: Q01DX001 (ip), vehicle: saline with Tween-80) is 102 % of control.
`COc1ccc(NC(C)=O)c(O)c1OC`: the T/C reads like this: under setting [7], 95 % of control; (endpoint: mean survival time, dose: 100.0 mg/kg/injection, schedule: Q04DX002 (ip), vehicle: saline with Tween-80) 103 % of control; under setting [8], 92 % of control; under setting [9], 106 % of control; (endpoint: mean survival time, dose: 400.0 mg/kg/injection, schedule: Q01DX001 (ip), vehicle: saline with Tween-80) 95 % of control; (endpoint: mean survival time, dose: 400.0 mg/kg/injection, schedule: Q04DX002 (ip), vehicle: saline with Tween-80) 98 % of control.
Consider `O=C(CCl)NC12Nc3ccccc3C1(Cc1ccccc1)CN(C1CCCCC1)C2=O` (stereo unspecified), for which the T/C is 95 % of control (endpoint: mean survival time, dose: 50.0 mg/kg/injection, schedule: Q04DX002 (ip), vehicle: saline with Tween-80); 100 % of control under setting [7]; 86 % of control under setting [8]; 89 % of control under setting [9].
In the case of `COc1ccc2[nH]c3c(c2c1)CCNC3CC(C)CCC=C(C)C` (stereo unspecified), the T/C was 100 % of control and 110 % of control (endpoint: mean survival time, dose: 6.25 mg/kg/injection, schedule: Q01DX009 (ip), vehicle: Klucel (hydroxypropylcellulose) (HPC)); 98 % of control and 102 % of control (endpoint: mean survival time, dose: 12.5 mg/kg/injection, schedule: Q01DX009 (ip), vehicle: Klucel (hydroxypropylcellulose) (HPC)); 97 % of control and 101 % of control (endpoint: mean survival time, dose: 25.0 mg/kg/injection, schedule: Q01DX009 (ip), vehicle: Klucel (hydroxypropylcellulose) (HPC)); 100 % of control and 103 % of control (endpoint: mean survival time, dose: 50.0 mg/kg/injection, schedule: Q01DX009 (ip), vehicle: Klucel (hydroxypropylcellulose) (HPC)); 86 % of control and 100 % of control (endpoint: mean survival time, dose: 100.0 mg/kg/injection, schedule: Q01DX009 (ip), vehicle: Klucel (hydroxypropylcellulose) (HPC)); 108 % of control (endpoint: mean survival time, dose: 200.0 mg/kg/injection, schedule: Q01DX009 (ip), vehicle: Klucel (hydroxypropylcellulose) (HPC)).
Turning to `COC(=N)CC(=O)C(C)(C)C`, the T/C reads like this: (endpoint: mean survival time, dose: 100.0 mg/kg/injection, schedule: Q01DX001 (ip), vehicle: other) 102 % of control; (endpoint: mean survival time, dose: 200.0 mg/kg/injection, schedule: Q01DX001 (ip), vehicle: other) 97 % of control; (endpoint: mean survival time, dose: 400.0 mg/kg/injection, schedule: Q01DX001 (ip), vehicle: other) 97 % of control.
For the compound `CNC(=O)OCC1C(=O)C2C(CN(C)C3=C1C(=O)C(N)=C(C)C3=O)N2C` (stereo unspecified), the T/C (endpoint: mean survival time, dose: 83.0 mg/kg/injection, schedule: Q01DX001 (ip), vehicle: carboxymethylcellulose (CMC)) is 106 % of control; the T/C (endpoint: mean survival time, dose: 125.0 mg/kg/injection, schedule: Q01DX001 (ip), vehicle: carboxymethylcellulose (CMC)) was 102 % of control; the T/C (endpoint: mean survival time, dose: 187.0 mg/kg/injection, schedule: Q01DX001 (ip), vehicle: carboxymethylcellulose (CMC)) was 118 % of control.
In the case of `CCOc1cccc(Cc2cn(Cc3cccc(NC(=O)c4ccc(S(=O)(=O)F)cc4)c3)c(=O)[nH]c2=O)c1`, the T/C (endpoint: mean survival time, dose: 75.0 mg/kg/injection, schedule: Q01DX001 (ip), vehicle: saline with Tween-80) was 100 % of control and the T/C (endpoint: mean survival time, dose: 150.0 mg/kg/injection, schedule: Q01DX001 (ip), vehicle: saline with Tween-80) was 97 % of control.
On to `COC(=O)C1C2OC(C(Br)C2Br)C1C(=O)OC` (stereo unspecified), for which the T/C by setting is: under setting [1], 100 % of control; under setting [2], 97 % of control; under setting [3], 92 % of control; under setting [4], 93 % of control; under setting [5], 100 % of control; under setting [6], 92 % of control.
With `Clc1[nH]nc2ccccc12`, the T/C is, setting by setting: (endpoint: mean survival time, dose: 12.5 mg/kg/injection, schedule: Q01DX009 (ip), vehicle: saline with Tween-80) 102 % of control; (endpoint: mean survival time, dose: 12.5 mg/kg/injection, schedule: Q04DX003 (ip), vehicle: saline with Tween-80) 98 % of control; (endpoint: mean survival time, dose: 25.0 mg/kg/injection, schedule: Q01DX001 (ip), vehicle: saline with Tween-80) 90 % of control; (endpoint: mean survival time, dose: 25.0 mg/kg/injection, schedule: Q01DX009 (ip), vehicle: saline with Tween-80) 105 % of control; (endpoint: mean survival time, dose: 25.0 mg/kg/injection, schedule: Q04DX003 (ip), vehicle: saline with Tween-80) 93 % of control and 97 % of control; (endpoint: mean survival time, dose: 50.0 mg/kg/injection, schedule: Q01DX001 (ip), vehicle: saline with Tween-80) 98 % of control. In addition, the T/C under setting [10] is 89 % of control; the T/C (endpoint: mean survival time, dose: 50.0 mg/kg/injection, schedule: Q04DX003 (ip), vehicle: saline with Tween-80) is 101 % of control; the T/C under setting [7] is 93 % of control; the T/C under setting [1] is 101 % of control; the T/C under setting [2] is 98 % of control and 97 % of control; the T/C under setting [3] is 89 % of control. In addition, the T/C is 100 % of control under setting [4] and 86 % of control under setting [6].
With `O=C(O)CC1CCC(CC(=O)O)CC1` (stereo unspecified), the T/C under setting [1] was 101 % of control, the T/C under setting [3] was 104 % of control and the T/C under setting [5] is 101 % of control.
Regarding `CC1(C)OC2C(C#N)OC(n3ccc(=O)[nH]c3=O)C2O1` (stereo unspecified), the T/C reads like this: (endpoint: median survival time, dose: 21.88 mg/kg/injection, schedule: Q01DX005 (ip), vehicle: Klucel (hydroxypropylcellulose) (HPC)) 101 % of control; (endpoint: median survival time, dose: 43.75 mg/kg/injection, schedule: Q01DX005 (ip), vehicle: Klucel (hydroxypropylcellulose) (HPC)) 102 % of control; (endpoint: median survival time, dose: 87.5 mg/kg/injection, schedule: Q01DX005 (ip), vehicle: Klucel (hydroxypropylcellulose) (HPC)) 98 % of control; (endpoint: median survival time, dose: 175.0 mg/kg/injection, schedule: Q01DX005 (ip), vehicle: Klucel (hydroxypropylcellulose) (HPC)) 102 % of control.
Turning to `O=C(Nc1cccc(F)c1)c1c(O)[nH]c(=S)[nH]c1=O`, the T/C runs as follows: (endpoint: median survival time, dose: 25.0 mg/kg/injection, schedule: Q01DX009 (ip), vehicle: saline with Tween-80) 114 % of control and 106 % of control; (endpoint: median survival time, dose: 50.0 mg/kg/injection, schedule: Q01DX009 (ip), vehicle: saline with Tween-80) 113 % of control and 114 % of control; (endpoint: median survival time, dose: 100.0 mg/kg/injection, schedule: Q01DX009 (ip), vehicle: saline with Tween-80) 117 % of control; (endpoint: median survival time, dose: 200.0 mg/kg/injection, schedule: Q01DX009 (ip), vehicle: saline with Tween-80) 155 % of control.
`O=C(CNC(=O)Nc1cccc(C(F)(F)F)c1)N/N=C/c1cc(Br)ccc1O`: the T/C was 96 % of control under setting [10] and 88 % of control under setting [1].
On to `O=[N+]([O-])c1cc(S(=O)(=O)c2ccc(/C=C/c3ccc4c(c3)OCO4)c([N+](=O)[O-])c2)ccc1/C=C/c1ccc2c(c1)OCO2`, for which the T/C was 95 % of control under setting [1], 88 % of control under setting [3] and 93 % of control under setting [5].
With `CN(C)c1nc(=[N+](C)C)ss1`, the T/C is 104 % of control under setting [10]; 101 % of control and 107 % of control under setting [1]; 102 % of control under setting [2]; 93 % of control and 107 % of control under setting [3]; 98 % of control under setting [4]; 93 % of control under setting [5]. Also, the T/C under setting [6] is 90 % of control.
For `Nc1ncnc(N)c1NC(=O)c1ccc(CCCCc2ccccc2)cc1`, the T/C reads like this: under setting [2], 104 % of control; under setting [4], 96 % of control; under setting [6], 92 % of control.
